# In patent publication US20080194499A1, “Composition for selective serotonin reuptake inhibition and process thereof” (priority 2007, published 2008):
# Key:
# Type in all cases: in vivo, Swiss albino mice
# [1] = test system: mice; assay: Tail suspension test in mice; settings: 64 mg/kg p.o.
# From the text: Effect of Test Compound on Tail Suspension in Mice
# This test is used to evaluate potential antidepressants by determining the percentage decrease in immobility in rodents. […] Clinically effective anti-dependents reduce the immobility that mice display after active and unsuccessful attempts to escape when suspended by tail.
# Swiss albino mice of either sex weighing 25-30 g would be housed in plastic cages for at least 10 days prior to testing. Animals would be allowed to adapt to the testing environment for 1 hr before testing. […] For the test, the mice would be suspended on the edge of a shelf 58 cm above a tabletop by adhesive tape placed approximately 1 cm from the tip of the tail. The duration of immobility would be recorded for a period of 6 min continuously. Mice are considered immobile when they hang passively and completely motionless for at least […].
# The percentage of animals showing the passive behavior is counted and compared with vehicle treated controls using various doses.
# [2] = test system: mice; assay: Locomotor activity in mice (Actophotometer)
# Procedure: Effect of Test Compound on Locomotor Activity in Mice This test is conducted to rule out the sedative aspect of the anti-depressants. Besides, it can also eliminate certain muscle relaxant effects of the drug. Swiss albino mice are tested in a locomotors chamber with laser sensors to check their movements. The locomotors score is a direct function of the mobility of the animal. Decrease in mobility could be due to sedative effect and muscle relaxant effect. Swiss albino mice of either sex weighing 25-30 g would be housed in plastic cages for at least 10 days prior to testing. Animals would be allowed to adapt to the testing environment for 1 hr before testing. […] For the test the mice would be individually placed in Actophotometer.
# [3] = test system: mice; assay: Forced swim test; settings: 100 mg/kg p.o.
# Procedure: Mice forced to swim in a restricted space from which they cannot escape are induced to a characteristic behavior of immobility.
# Male Swiss albino mice weighing 25-30 g would be brought into the laboratory at least one day before the experiment and would be housed separately in cages. Mice would be individually forced to swim inside a vertical Plexiglas cylinder (25×23 cm) containing 12 cm of water maintained at 25° C.
# After 2-3 min activity begins to subside and to be interspersed with phases of immobility or floating of increasing length. After 5-6 min immobility reaches a plateau where the mice remain immobile for approximately 80% of the time. After 15 min in the water the mice would be removed and would be allowed to dry in a heated enclosure (32° C.) before being returned to their home cages. They would again be placed in the cylinder 24 hr later and the total duration of immobility would be counted for the last 4 min of 6 min test session. An animal is judged to be immobile whenever it remains floating passively in the water in a slightly hunched but upright position, its nose just above the surface.
# [4] = test system: mice; assay: Forced swim test after reserpine administration
# Procedure: Reserpine Antagonism Depletion of biogenic amines in brain induces not only catalepsy but also hypothermia in rodents. The decrease of body temperature induced by reserpine is antagonized by antidepressants, MAO-inhibitors and central stimulants. Reserpine also decreases the levels of brain neuroamines like serotonin. […] Forced Swim Test after Reserpine Administration Male Swiss albino mice weighing 25-30 g would be used. All the animals would be Pre trained individually to swim for 15 minutes in vertical plexiglass cylinder (25×23 cm) containing 12 cm of water maintained at 25° C. They would be injected with 5 mg/kg reserpine i.p. after 20 hr of pretraining.
# [5] = test system: mice; assay: Locomotor activity test after reserpine administration
# Procedure: The intra-peritoneal administration of reserpine (5 mg/kg, i.p.) in mice leads to reduce locomotor activity which can be antagonized by antidepressants, MAO-inhibitors and central stimulants. Male Swiss albino mice weighing 25-30 g would be used.
# [6] = test system: re uptake of serotonin; assay: 5-Hydroxytryptophan (L 5-HTP) potentiation in mice; settings: 64 mg/kg p.o.
# Procedure: 5-Hydroxytryptophan (L 5-HTP) Potentiation in Mice
# Several antidepressant agents potentiate serotonin effects by a block of the re uptake of serotonin. 5-Hydroxytryptophan is used as the precursor of serotonin.
# Groups of 6 Swiss albino mice (25-30 g) would be used. […] The mice would be then placed into glass bell jars and the number of head twitches would be counted in five 2-min intervals (between 14 and 16, 24 and 26, 34 and 36, 44 and 46 and 54 and 56 min).
SMILES,"TOTAL IMMOBILITY TIME ([1]; 60 min before test, 6 min recording) [s]",% DECREASE IN IMMOBILITY ([1]; vs vehicle group) [%],"TOTAL LOCOMOTOR ACTIVITY COUNTS ([2]; 64 mg/kg p.o., 60 min before test, 10 min count)","% INCREASE IN LOCOMOTOR ACTIVITY ([2]; 64 mg/kg p.o., vs vehicle group) [%]","sedative effect (in words) ([2]; mice, locomotor activity test)","TOTAL IMMOBILITY TIME ([3]; one hour before test, last 4 min of 6 min session) [s]",% DECREASE IN IMMOBILITY ([3]; vs vehicle group) [%],"TOTAL IMMOBILITY TIME ([4]; 100 mg/kg oral, 4 h after reserpine 5 mg/kg i.p., 6 min swim) [s]","% DECREASE IN IMMOBILITY ([4]; 100 mg/kg oral, vs reserpine group) [%]","% INCREASE IN LOCOMOTOR ACTIVITY ([5]; 64 mg/kg oral, vs reserpine group) [%]",TOTAL NO OF HEAD TWITCHES MEAN ± SEM ([6]; 60 min before 75 mg/kg i.p. 5-HTP),% INCREASE IN NO OF HEAD TWITCHES ([6]; vs vehicle group) [%],TOTAL IMMOBILITY TIME ([4]; reserpine 5 mg/kg i.p. alone) [s],TOTAL LOCOMOTOR ACTIVITY COUNTS ([5]; reserpine 5 mg/kg i.p. alone)
CN(C)CCCN1c2ccccc2CCc2ccccc21 [Imipramine],90.90 ± 7.690,51.88,127.00 ± 06.90,−38.80,induces sedation,45.17 ± 4.450,71.44,063.57 ± 3.320,71.24,079.91,13.25 ± 2.477,−38.73,–,–
COC(=O)[C@H]1[C@H]2C[C@@H]3c4[nH]c5cc(OC)ccc5c4CCN3C[C@H]2C[C@@H](OC(=O)c2cc(OC)c(OC)c(OC)c2)[C@@H]1OC [Reserpine],–,–,–,–,–,–,–,–,–,–,–,–,221.60 ± 6.793,121.17 ± 06.112
